The values below come from ChEMBL document CHEMBL5537201, “Discovery of Unique Bis-Substituted Aromatic Amide Derivatives as Novel Highly Potent Antibiotics for Combating Methicillin-Resistant Staphylococcus aureus (MRSA)” (J Med Chem, 2024).

The test system of series [1] is Staphylococcus aureus. In words: Bactericidal activity against Staphylococcus aureus ATCC6538 at 5 ug/ml measured upto 150 mins. Format: functional, organism-based. The following applies: dose 5.0 µg/ml.
Series [2] concerns Staphylococcus aureus. In words: Induction of drug resistance in Staphylococcus aureus ATCC6538 assessed as fold change in MIC measured after 10 passages. Format: functional.
The subject of series [3] is Staphylococcus aureus. In words: Bactericidal activity against norfloxacin-resistant Staphylococcus aureus ATCC6538 at 5 ug/ml measured upto 150 mins. Format: functional, organism-based. The following applies: dose 5.0 µg/ml.
Series [4] can be described thus: Cytotoxicity against HEK293 cells assessed as reduction in cell viability measured after 24 hrs by CCK-8 method. Format: toxicity, cell-based. The following applies: human. In general terms: Formazan colour is commonly taken as a measure of viable cells.
A short description of series [5]: Selectivity index, ratio of IC50 for African green monkey Vero E6 cells to MIC for Staphylococcus aureus ATCC6538. Format: toxicity. The following applies: read-out: Selectivity Index.
For series [6], the system named is Staphylococcus aureus. In words: Bactericidal activity against Staphylococcus aureus ATCC6538 assessed as reduction in survival rate at 5 to 10 times MIC measured after 30 to 120 mins by colony counting method relative to control. Format: functional. The following applies: time 30-120 min.
Series [7] has as its system Staphylococcus aureus. In words: Antimicrobial activity against methicillin resistant Staphylococcus aureus clinical isolate MRS121 assessed as reduction in bacterial growth incubated for 24 hrs by two-fold broth dilution method. Format: functional. A general note: Broth dilution looks for growth in wells or tubes with falling amounts of substance.
The test system of series [8] is Staphylococcus aureus. Put plainly: Antimicrobial activity against Staphylococcus aureus N315 assessed as reduction in bacterial growth incubated for 24 hrs by two-fold broth dilution method. Format: functional.
Series [9] deals with Staphylococcus aureus. In words: Induction of drug resistance in Staphylococcus aureus ATCC6538 assessed as change in MIC measured after 10 passages. Format: functional.
The nature of series [10]: Cytotoxicity against human HaCaT cells assessed as reduction in cell viability measured after 24 hrs by CCK-8 method. Format: toxicity, cell-based.
Series [11] concerns Staphylococcus aureus. In words: Antimicrobial activity against methicillin resistant Staphylococcus aureus clinical isolate MRS70 assessed as reduction in bacterial growth incubated for 24 hrs by two-fold broth dilution method. Format: functional.
Series [12] is described as follows: Cytotoxicity against African green monkey Vero E6 cells assessed as reduction in cell viability measured after 24 hrs by CCK-8 method. Format: toxicity, cell-based, Chlorocebus sabaeus, Vero C1008.
Series [13] has as its system Staphylococcus aureus. In words: Antimicrobial activity against methicillin resistant Staphylococcus aureus clinical isolate MRS273 assessed as reduction in bacterial growth incubated for 24 hrs by two-fold broth dilution method. Format: functional.
Series [14] deals with Staphylococcus aureus. Put plainly: Antimicrobial activity against methicillin resistant Staphylococcus aureus clinical isolate MRS108 assessed as reduction in bacterial growth incubated for 24 hrs by two-fold broth dilution method. Format: functional.
The test system of series [15] is Staphylococcus aureus. In words: Antimicrobial activity against methicillin resistant Staphylococcus aureus clinical isolate MRS153 assessed as reduction in bacterial growth incubated for 24 hrs by two-fold broth dilution method. Format: functional.
Series [16] has as its system Staphylococcus aureus. In words: Antimicrobial activity against methicillin resistant Staphylococcus aureus clinical isolate MRS97 assessed as reduction in bacterial growth incubated for 24 hrs by two-fold broth dilution method. Format: functional.
The test system of series [17] is Staphylococcus aureus. Put plainly: Antimicrobial activity against methicillin resistant Staphylococcus aureus clinical isolate MRS23 assessed as reduction in bacterial growth incubated for 24 hrs by two-fold broth dilution method. Format: functional.
The test system of series [18] is Staphylococcus aureus. In words: Antimicrobial activity against methicillin resistant Staphylococcus aureus clinical isolate MRS152 assessed as reduction in bacterial growth incubated for 24 hrs by two-fold broth dilution method. Format: functional.
Series [19] has as its system Staphylococcus aureus. In words: Antimicrobial activity against methicillin resistant Staphylococcus aureus clinical isolate MRS1 assessed as reduction in bacterial growth incubated for 24 hrs by two-fold broth dilution method. Format: functional.
In another series the test system is A549. Put plainly: Cytotoxicity against human A549 cells assessed as reduction in cell viability measured after 24 hrs by CCK-8 method. The following applies: A549, 24 h. Format: functional, cell-based.
The subject of the next series is Streptomyces albus. In words: Antimicrobial activity against Streptomyces albus SHBC D11158 assessed as reduction in bacterial growth incubated for 24 hrs by two-fold broth dilution method. Format: functional.
Series [20] can be described thus: Hemolytic activity in rabbit Red blood cell assessed as hemolysis incubated for 1 hr by two-fold microdilution method. Format: toxicity, cell-based, Oryctolagus cuniculus, Erythrocyte. The following applies: red blood cells (erythrocytes).
Series [21] concerns Staphylococcus aureus. In words: Antimicrobial activity against methicillin resistant Staphylococcus aureus clinical isolate MRS200 assessed as reduction in bacterial growth incubated for 24 hrs by two-fold broth dilution method. Format: functional.
Series [22] relates to Staphylococcus aureus. Put plainly: Antimicrobial activity against methicillin resistant Staphylococcus aureus clinical isolate MRS84 assessed as reduction in bacterial growth incubated for 24 hrs by two-fold broth dilution method. Format: functional.
The test system of the next series is HeLa. In words: Cytotoxicity against human HeLa cells assessed as reduction in cell viability measured after 24 hrs by CCK-8 method. Format: functional, cell-based.
The subject of another series is Staphylococcus hominis. In words: Antimicrobial activity against methicillin-resistant Staphylococcus hominis assessed as reduction in bacterial growth incubated for 24 hrs by two-fold broth dilution method. Format: functional.
Series [23] can be described thus: Selectivity index, ratio of HC50 for rabbit Red blood cell to MIC for Staphylococcus aureus ATCC6538. Format: toxicity. The following applies: red blood cells (erythrocytes), read-out: Selectivity Index.
The test system of series [24] is Staphylococcus aureus. In words: Antimicrobial activity against methicillin resistant Staphylococcus aureus clinical isolate MRS207 assessed as reduction in bacterial growth incubated for 24 hrs by two-fold broth dilution method. Format: functional.
Series [25] deals with Staphylococcus aureus. Put plainly: Antimicrobial activity against Staphylococcus aureus ATCC6538 assessed as reduction in bacterial growth incubated for 24 hrs by two-fold broth dilution method. Format: functional.
In series [26] the test system is Staphylococcus aureus. Put plainly: Bactericidal activity against methicillin-resistant Staphylococcus aureus clinical isolate MRS153 at 5 ug/ml measured upto 150 mins. Format: functional, organism-based. The following applies: dose 5.0 µg/ml.
Series [27] deals with Staphylococcus aureus. Put plainly: Bactericidal activity against methicillin-resistant Staphylococcus aureus clinical isolate MRS97 at 5 ug/ml measured upto 150 mins. Format: functional, organism-based. The following applies: dose 5.0 µg/ml.
Series [28] concerns Staphylococcus aureus. In words: Bactericidal activity against methicillin-resistant Staphylococcus aureus clinical isolate MRS1 at 5 ug/ml measured upto 150 mins. Format: functional, organism-based. The following applies: dose 5.0 µg/ml.

In brackets after ≈: the same amount, converted by molar mass. Activity calls are given as the source filed them. The calls are words filed in the database; no cut-off is given here. A value given as a limit tells only on which side of the number the result lay.

Regarding `CCn1cc(C(=O)O)c(=O)c2cc(F)c(N3CCNCC3)cc21`, the outcome in the series on Staphylococcus aureus [1] was Active. Besides, the fold change (FC) in the series with Staphylococcus aureus [2] is 256. Further, in the series on Staphylococcus aureus [3], the outcome was inactive.

With `O=C(CCC(F)(F)F)N(Cc1cc2ccccc2s1)c1cc(-c2ccco2)ccc1O`, the IC50 (as a rule, the midpoint of a concentration-inhibition curve) at 24 h was 15.4 µg/mL (≈ 34.6 µM) in [4], over 25 µg/mL in series [10] and over 25 µg/mL in [12]. Also, the selectivity ratio in series [5] is over 25; in [23], over 1000. The Survival in the series on Staphylococcus aureus [6] was under 1%. The minimal inhibitory concentration (MIC) (usually the lowest concentration that inhibits growth of the organism) in the series with Staphylococcus aureus [7] was 6 µg/mL (≈ 13.5 µM); in the series on Staphylococcus aureus [8], 1 µg/mL (≈ 2.24 µM); with Staphylococcus aureus [11] it was 6 µg/mL (≈ 13.5 µM); in the series on Staphylococcus aureus [13], 3 µg/mL (≈ 6.73 µM); in the series with Staphylococcus aureus [14] it was 6 µg/mL (≈ 13.5 µM); with Staphylococcus aureus [15] it was 2 µg/mL (≈ 4.49 µM). Moreover, the MIC came out at 3 µg/mL (≈ 6.73 µM) in the series on Staphylococcus aureus [16]; 2 µg/mL (≈ 4.49 µM) in the series with Staphylococcus aureus [17]; 6 µg/mL (≈ 13.5 µM) with Staphylococcus aureus [18]; 6 µg/mL (≈ 13.5 µM) in the series on Staphylococcus aureus [19]; 16 µg/mL (≈ 35.9 µM) with Streptomyces albus; 6 µg/mL (≈ 13.5 µM) in the series with Staphylococcus aureus [21]. In addition, the MIC with Staphylococcus aureus [22] turned out to be 3 µg/mL (≈ 6.73 µM); in the series with Staphylococcus hominis, 16 µg/mL (≈ 35.9 µM); with Staphylococcus aureus [24] it was 8 µg/mL (≈ 18 µM); in the series with Staphylococcus aureus [25] it was 2 µg/mL (≈ 4.49 µM). Also, in the series with Staphylococcus aureus [9], the result was inactive. Besides, the IC50 in the series on A549 and in the series on HeLa was over 25 µg/mL throughout. Also, the HC50 (in general, the concentration giving 50% haemolysis) at 1 h in series [20] is 1640 µg/mL.

Consider `COc1cccc(OC)c1C(=O)N[C@@H]1C(=O)N2[C@@H]1SC(C)(C)[C@@H]2C(=O)O` [METHICILLIN], for which the result with Staphylococcus aureus [26], in the series with Staphylococcus aureus [27] and in the series with Staphylococcus aureus [28] was inactive. Further, the MIC in the series with Staphylococcus aureus [7] is 8 µg/mL (≈ 21 µM); in the series with Staphylococcus aureus [11], 16 µg/mL (≈ 42.1 µM); in the series with Staphylococcus aureus [13] it was 16 µg/mL (≈ 42.1 µM); in the series on Staphylococcus aureus [14], 16 µg/mL (≈ 42.1 µM); in the series on Staphylococcus aureus [15] it was over 16 µg/mL; with Staphylococcus aureus [16], 8 µg/mL (≈ 21 µM). The MIC with Staphylococcus aureus [17] was 8 µg/mL (≈ 21 µM); in the series with Staphylococcus aureus [18] it was 8 µg/mL (≈ 21 µM); in the series with Staphylococcus aureus [19], 16 µg/mL (≈ 42.1 µM); in the series on Streptomyces albus, 4 µg/mL (≈ 10.5 µM); with Staphylococcus aureus [21] it was over 16 µg/mL; in the series with Staphylococcus aureus [22], 16 µg/mL (≈ 42.1 µM). In addition, the MIC with Staphylococcus hominis came out at 2 µg/mL (≈ 5.26 µM); in the series with Staphylococcus aureus [24], 16 µg/mL (≈ 42.1 µM); with Staphylococcus aureus [25], 1 µg/mL (≈ 2.63 µM).
